In brackets after ≈: the same amount, converted by molar mass. Like-named read-outs stand apart in the source and are kept apart here.
Assays:
[1] = Solubility test in water or organic solvent; assay type: physicochemical; conditions: room temperature, visually observed; for Solubility in Ethyl acetate: 0.1 g sample in 1 ml ethyl acetate; for solubility: thermodynamic from solid
Description: 0.1 g of each sample was weighed and 1 ml of water or an organic solvent was accurately added thereto. After agitating the mixture with a test tube mixer (VORTEX), it was allowed to stand at room temperature and the state was visually observed. Solubility was evaluated as “o”, when a sample was completely dissolved. Solubility was evaluated as “Δ”, when a sample was approximately half dissolved. Solubility was evaluated as “x”, when a sample was almost not dissolved. Propylbiphenol that was a starting material for each Preparation Example was also evaluated as Comparative Example 1.

[2] = tested on: B16 melanoma cells; assay: Melanogenesis inhibition test; assay type: cell-based; conditions: for IC50: Mus musculus; for Melanogenesis inhibition rate (%, vs control): 72 hours culture, melanin per protein
Description: B16 melanoma cells were plated at 10^4 cells/well in a MEM medium containing 10 vol % fetal bovine serum in a 12-well plate and were precultured for 24 hours. After the preculture, the medium was replaced with a medium obtained by adding a predetermined concentration of the sample compound to the above medium to which is added 2 mmol/L of theophylline, and culture was carried out for 72 hours. […] Further, the cells were dissolved in a 1 mol/L aqueous sodium hydroxide solution containing 10 vol % dimethyl sulfoxide. The OD475 was measured and the value was used as an indicator of the amount of melanin. Thereafter, the amount of total protein in the solution was determined using Coomasie Plus Protein Assay Reagent Kit (manufactured by PIERCE) to calculate the amount of melanin per amount of protein. The melanogenesis inhibition rate (%) relative to a control was determined with a case where the sample compound was not added as the control.
Melanogenesis inhibition curves of the monoacetyl and diacetyl derivatives of propylbiphenol of Preparation Example 1 according to the present invention were made based on the results of the melanogenesis inhibition test (FIGS. 6 and 7). IC50 values, which is the concentration values supposed to inhibit 50% of melanogenesis, were determined from the inhibition curves.

[3] = 0.1 g sample in 1 ml water, read-out: Solubility in Water
[4] = B16, determined from melanogenesis inhibition curves, read-out: IC50 value (concentration supposed to inhibit 50% of melanogenesis)
[5] = addition concentration 10 μg/ml

Row | SMILES | Solubility in Ethyl acetate [1] | Solubility in Methanol ([1]; 0.1 g sample in 1 ml methanol) | Solubility in n-hexane ([1]; 0.1 g sample in 1 ml n-hexane) | solubility [1, 3] | IC50 [2, 4] | Melanogenesis inhibition rate (%, vs control) ([2]; addition concentration 1 μg/ml) | Melanogenesis inhibition rate (%, vs control) ([2]; addition concentration 3 μg/ml) | Melanogenesis inhibition rate (%, vs control) [2, 5] | Melanogenesis inhibition rate (%, vs control) ([2]; addition concentration 30 μg/ml) | solubility ([1]; organic solvent or mixture, 0.1 g sample in 1 ml methanol, read-out: Solubility in Methanol) | solubility ([1]; organic solvent or mixture, 0.1 g sample in 1 ml n-hexane, read-out: Solubility in n-hexane) | IC50 ([2]; B16, read-out: IC50 value (concentration supposed to inhibit 50% of melanogenesis))
1 | CCCc1ccc(OC(C)=O)c(-c2cc(CCC)ccc2OC(C)=O)c1 [Diacetyl derivative] | ∘ | ∘ | ∘ | < 25 mg/mL | 6.5 µg/mL (≈ 0.0183 mM) | −15.5% | −16.6% | 72.0% | 83.8% | – | – | –
2 | CCCc1ccc(OC(=O)CC)c(-c2cc(CCC)ccc2OC(=O)CC)c1 [Dipropionyl derivative] | ∘ | ∘ | ∘ | < 25 mg/mL | – | – | – | – | – | – | – | –
3 | CCCc1ccc(O)c(-c2cc(CCC)ccc2OC(C)=O)c1 [Monoacetyl derivative] | ∘ | ∘ | ∘ | < 25 mg/mL | 7 µg/mL (≈ 0.0224 mM) | −11.6% | −9.8% | 100% | – | – | – | –
4 | CCCCCCCC(=O)Oc1ccc(CCC)cc1-c1cc(CCC)ccc1O [Monooctanoyl derivative] | ∘ | ∘ | ∘ | < 25 mg/mL | – | – | – | – | – | – | – | –
5 | CCCc1ccc(O)c(-c2cc(CCC)ccc2O)c1 [Propylbiphenol, 2,2′-dihydroxy-5,5′-di-n-propyl-biphenyl, reference compound] | ∘ | – | – | < 25 mg/mL | – | – | – | – | – | 25 to 100 mg/mL (≈ 92.5 to 370 mM) | < 25 mg/mL | 4 µg/mL (≈ 0.0148 mM)
6 | OC[C@H]1O[C@@H](Oc2ccc(O)cc2)[C@H](O)[C@@H](O)[C@@H]1O [arbutin, reference compound] | – | – | – | – | 20 µg/mL (≈ 0.0735 mM) | – | – | – | – | – | – | –

— patent US20090053152A1, “SKIN COSMETIC” (KAO Corporation, priority 2006, published 2009)
